Test results published in article PMC7821181, “MS Binding Assays for Glycine Transporter 2 (GlyT2) Employing Org25543 as Reporter Ligand” (Chemmedchem, 2020).
“Also recorded” adds a separate entry of the source. Like-named read-outs stand apart in the source and are kept apart here.

Tests used:
GlyT2 [1] = details: cited from earlier work; for IC50: read-out: Biological activity, IC50 (literature)
[2] = ref 61; cited from earlier work
hGlyT2 = biological target: T1, hGlyT2 (Homo sapiens, UniProt Q9Y345); test: GlyT2 MS Binding Assays: competition experiments with Org25543 as reporter ligand
T1 construct: host or cells: HEK293 cells stably expressing hGlyT2; crude membrane fractions
T1 sequence (Q9Y345 1-797): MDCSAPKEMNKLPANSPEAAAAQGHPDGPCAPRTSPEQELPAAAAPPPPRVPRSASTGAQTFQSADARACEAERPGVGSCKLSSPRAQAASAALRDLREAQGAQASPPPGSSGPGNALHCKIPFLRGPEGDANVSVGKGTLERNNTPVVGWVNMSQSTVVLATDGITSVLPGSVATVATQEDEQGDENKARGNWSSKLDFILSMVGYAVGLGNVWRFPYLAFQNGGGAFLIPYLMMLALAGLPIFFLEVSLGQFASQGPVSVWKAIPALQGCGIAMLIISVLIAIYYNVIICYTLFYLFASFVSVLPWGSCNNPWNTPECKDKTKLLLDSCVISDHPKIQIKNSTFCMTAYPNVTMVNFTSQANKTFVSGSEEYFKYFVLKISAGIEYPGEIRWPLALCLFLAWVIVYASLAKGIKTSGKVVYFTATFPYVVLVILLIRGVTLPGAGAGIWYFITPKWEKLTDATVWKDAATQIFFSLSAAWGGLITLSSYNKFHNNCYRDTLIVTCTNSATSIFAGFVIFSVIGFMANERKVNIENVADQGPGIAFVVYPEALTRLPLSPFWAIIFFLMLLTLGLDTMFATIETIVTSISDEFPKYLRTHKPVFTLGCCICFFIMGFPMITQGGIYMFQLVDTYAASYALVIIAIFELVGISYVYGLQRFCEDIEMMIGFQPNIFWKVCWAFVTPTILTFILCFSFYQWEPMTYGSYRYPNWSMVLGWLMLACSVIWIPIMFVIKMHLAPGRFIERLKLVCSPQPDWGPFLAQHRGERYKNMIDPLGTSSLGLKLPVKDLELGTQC
Description: For the development of the desired competitive MS Binding Assay, the general concept of this kind of binding experiments was followed, in which the affinity of a test compound is delineated from its potency to compete out a reporter ligand, in our case Org25543, from its target binding site. Accordingly, the target protein was incubated with a defined concentration of the reporter ligand and increasing concentration of the individual test compound. In detail, the competitors were studied at seven different concentration levels, which covered about three concentration log units, whereas the concentration of Org25543 was fixed to 10 nM. Thereafter, via the developed LC‐ESI‐MS/MS method the amount of bound marker (total binding) was determined for the samples obtained from the individual incubation mixtures by the common workup for MS Binding Assays. Nonspecific binding was again determined in a set of analogous experiments in which GlyT2 membrane fractions were replaced by material subjected to a heat‐shock before. The resulting amount of Org25543 binding was defined as 0 % level of specific reporter ligand binding. […] The thus determined IC50 values were finally used to calculate the corresponding K i values by means of the Cheng‐Prusoff equation.
For preparation of GlyT2 membrane preparations HEK293 cells, stably expressing the hGlyT2 with a confluence ≥90 %, were used (kindly provided by AbbVie (Wiesbaden, Germany)). As cell culture medium DMEM containing 10 % fetal bovine serum (m/v), 100 U mL^−1 penicillin, 100 μg mL^−1 streptomycin and […] hygromycin B was used and the cells were cultivated in dishes (143 cm^2) at 37 °C and 8 % CO2. The cells were detached from the dish by aspirating the medium, adding 12 mL cell culture medium without hygromycin B and pipetting the medium several times until the cell lawn was completely detached. Subsequently, the cells were washed twice with PBS (5 min, 1600 rpm, Biofuge Stratos, rotor: #3047, Heraeus, Hanau, Germany) and afterwards homogenized in incubation buffer (10 mM HEPES, 120 mM NaCl, 2 mM KCl, 1 mM MgCl2, 1 mM CaCl2, pH 7.5) using a Polytron PTA 10 S (Kinematica Polytron, Littau‐Luzern, Switzerland). After homogenization aliquots of about 1 mg protein were frozen and stored at −80 °C. To determine the amount of protein in the membrane preparation (after treatment with 100 mM NaOH for 1 h) the protein determination according to Bradford ^[63] was applied, using bovine serum albumin as standard for calibration. At the day of the assay the membrane preparation was rapidly thawed, diluted in 20 mL incubation buffer and centrifuged at 4 °C for 20 min at 20 500 rpm (Sorvall Evolution RC, rotor: SS34, Thermo. Electron, Hanau, Germany). Finally, the resulting pellet was resuspended in 6 mL incubation buffer yielding a protein concentration of ∼0.1–0.2 mg mL^−1.
In polypropylene 96‐well plates (1.2 mL well volume, Sarstedt) membrane preparations (∼5–10 μg protein) were incubated in the presence of the reporter ligand and, if required, test compounds in incubation buffer (10 mM HEPES, 120 mM NaCl, 2 mM KCl, 1 mM MgCl2, 1 mM CaCl2, pH 7.5) in a total volume of 250 μL at 37 °C in a Julabo SW‐20 C water bath (Julabo GmbH, Seelbach, Germany) for 1 h (every sample was prepared in triplicates). After the incubation 210 μL aliquots of the binding samples were transferred by means of a 12‐channel pipette onto 96‐well glass fiber filter plates (AcroPrep Advance, glass fiber, 1.0 μm, 350 μL; Pall Corporation, Port Washington, NY, USA) where the incubation was terminated by vacuum filtration (the samples were transferred and the incubation was terminated row after row; Multi Well Plate Vacuum Manifold, Pall, Dreieich, Germany).

[3] = set-up: method as in PMID 23962079; details: after intravenous injection; cited from earlier work
GlyT2 [4] = biological target: T2, GlyT2 (Homo sapiens, UniProt Q9Y345); test: influence of DMA on binding of Org25543 towards GlyT2 in competition experiments; details: DMA as competitor, up to a concentration of 2 % (215 mM)
T2 construct: host or cells: HEK293 cells stably expressing hGlyT2; crude membrane fractions
T2 sequence (Q9Y345 1-797): T1 sequence (Q9Y345 1-797)
Description: Investigating adsorption of Org25543 to polypropylene container material To investigate the adsorption ability of Org25543 to polypropylene container material dilution series of Org25543 were prepared in reaction tubes (1.5 mL, PP, Sarstedt, Nümbrecht, Germany) using different solvents or solvent mixtures, respectively (H2O, acetonitrile, H2O/DMSO (80:20, v/v), H2O/N,N-dimethylacetamide (DMA; 80:20, 90:10 and 95:5 v/v)). At least five concentration levels (10-fold concentration; 10 nM – 625 pM) were prepared in each solvent and these concentration levels were diluted again 1:10 (final concentrations of Org25543: 1 nM – 62.5 pM) in a mixture of ammonium bicarbonate buffer (5 mM, pH7.8) and acetonitrile containing 111 pM [2H7]Org25543 (final concentration: 100 pM) that the final sample solvent equals the mobile phase.
Then the samples were subjected to LC-ESI-MS/MS quantification and the obtained peak area ratios of Org25543 and [ 2H7]Org25543 were plotted against the concentration of Org25543. By using linear regression analysis calibration curves were obtained for all dilution series and were compared to each other. The calibration curves are depicted in Figure S 4.
Investigating the influence of N,N-dimethylacetamide (DMA) on the binding of Org25543 towards GlyT2 in competition experiments […]

CCCCC/C=C\C/C=C\C/C=C\C/C=C\CCCC(=O)NCC(=O)O [N‐arachidonylglycine, N‐(1‐oxo‐(5Z,8Z,11Z,14Z)‐eicosatetraenyl)glycine]
pIC50 (literature; calcd) (GlyT2 [1]; calcd from literature IC50, ref 52): 5.29 | IC50 (GlyT2 [1]; ref 52): 5.1 ± 3.1 µM | critical micelle concentration (CMC) [2]: > 100 µM | Ki (hGlyT2): 3.98 µM

N[C@@H](COC(c1cccc(F)c1)c1ccccc1OCc1ccccc1)C(=O)O (some centres unmarked) [ALX1393, O‐[(2‐benzyloxyphenyl‐3‐flurophenyl)methyl]‐L‐serine]
IC50 (GlyT2 [1]; ref 11, 40): 0.026 to 0.1 µM | fraction crossing the blood‐brain‐barrier [3]: 5% | Ki (hGlyT2; read-out: Affinity, pKi (GlyT2 MS Binding Assays) (converted)): 1.17 µM

CC(=O)N(C)C [DMA, N,N‐dimethylacetamide]
influence on Org25543 binding at GlyT2, in words (GlyT2 [4]): no influence on the Org25543 binding at GlyT2; also recorded: not effect Org25543 binding
